Experimental data taken from ChEMBL document CHEMBL4346660, “Cryptolepine and aromathecin based mimics as potent G-quadruplex-binding, DNA-cleavage and anticancer agents: Design, synthesis and DNA targeting-induced apoptosis” (Eur J Med Chem, 2019).
The source made the active and inactive calls. No cut-off for these calls is given here.

Legend:
[1] = test system: L02; experiment: Cytotoxicity against human HL7702 cells assessed as reduction in cell viability incubated for 48 hrs by MTT assay; type: cell-based; settings: L02, 48 h
[2] = test system: NCI-H460; experiment: Antiproliferative activity against human NCI-H460 cells assessed as reduction in cell viability incubated for 48 hrs by MTT assay; type: functional, cell-based; settings: NCI-H460, 48 h
[3] = test system: HepG2; experiment: Antiproliferative activity against human HepG2 cells assessed as reduction in cell viability incubated for 48 hrs by MTT assay; type: functional, cell-based; settings: HepG2, 48 h
[4] = test system: T-24; experiment: Antiproliferative activity against human T24 cells assessed as reduction in cell viability incubated for 48 hrs by MTT assay; type: functional, cell-based; settings: T-24, 48 h
[5] = test system: MGC-803; experiment: Antiproliferative activity against human MGC803 cells assessed as reduction in cell viability incubated for 48 hrs by MTT assay; type: functional, cell-based; settings: MGC-803, 48 h
[6] = test system: MGC-803; experiment: Antitumor activity against human MGC803 cells xenografted in BALB/C mouse assessed as tumor growth inhibition at 6 mg/kg, ip administered every other day for 2 weeks measured during compound dosing relative to control; type: functional; settings: MGC-803, ip, 336 h, read-out: TGI
[7] = test system: DNA; experiment: Binding affinity to Escherichia coli supercoiled pBR322 DNA assessed as DNA intercalation at 5 uM after 3 hrs by ethidium bromide staining-based agarose gel electrophoresis analysis; type: nucleic-acid assay

| SMILES | IC50 [1] [nM] | IC50 [2] [nM] | IC50 [3] [nM] | IC50 [4] [nM] | IC50 [5] [nM] | inhibition in vivo at 6 mg/kg [6] [%] | Activity [7] |
| --- | --- | --- | --- | --- | --- | --- | --- |
| CN(C)CCNc1c2c(nc3ccc(F)cc13)-c1ccccc1C2 | 3220 | 2890 | 2590 | 1150 | 1780 |  |  |
| COc1cc2c(cc1OC)-c1nc3ccc(F)cc3c(NCCCN(C)C)c1C2 | 3070 | 3520 | 5230 | 2860 | 2110 |  |  |
| COc1cc2c(cc1OC)-c1nc3ccccc3c(NCCN(C)C)c1C2 | 2060 | 3100 | 3140 | 1820 | 1360 |  |  |
| COc1cc2c(cc1OC)-c1nc3ccc(C)cc3c(NCCCN(C)C)c1C2 | 4940 | 5520 | 12000 | 4640 | 5080 |  |  |
| COc1cc2c(cc1OC)-c1nc3ccc(Br)cc3c(NCCN(C)C)c1C2 | 6950 | 2830 | 1610 | 1530 | 2730 |  |  |
| CN(C)CCNc1c2c(nc3ccccc13)-c1ccccc1C2 | 1310 | 1230 | 2310 | 610 | 930 |  |  |
| c1ccc2c(c1)Cc1c-2nc2ccccc2c1NCCCN1CCOCC1 | 4730 | 4600 | 4480 | 1430 | 1950 |  |  |
| Brc1ccc2nc3c(c(NCCCN4CCOCC4)c2c1)Cc1ccccc1-3 | 5710 | 8570 | 6320 | 9410 | 7500 |  |  |
| COc1cc2c(cc1OC)-c1nc3ccc(Cl)cc3c(NCCN(C)C)c1C2 | 2560 | 2550 | 3120 | 2210 | 2220 |  |  |
| COc1cc2c(cc1OC)-c1nc3ccc(Cl)cc3c(NCCCN(C)C)c1C2 | 2600 | 1950 | 4180 | 2090 | 1580 |  |  |
| Clc1ccc2nc3c(c(NCCCN4CCOCC4)c2c1)Cc1ccccc1-3 | 7120 | 5210 | 5900 | 4320 | 6890 |  |  |
| CN(C)CCCNc1c2c(nc3ccccc13)-c1ccccc1C2 | 910 | 1660 | 2600 | 310 | 950 |  |  |
| CC[C@@]1(O)C(=O)OCc2c1cc1n(c2=O)Cc2cc3ccccc3nc2-1 [CAMPTOTHECIN] | 2150 | 5370 | 5690 | 3090 | 4270 | 62.3 |  |
| COc1cc2c(cc1OC)-c1nc3ccc(F)cc3c(NCCCN3CCOCC3)c1C2 | 3710 | 6420 | 8740 | 3740 | 3700 |  |  |
| COc1cc2c(cc1OC)-c1nc3ccc(Br)cc3c(NCCCN(C)C)c1C2 | 7060 | 5730 | 6380 | 4970 | 3660 |  |  |
| COc1cc2c(cc1OC)-c1nc3ccccc3c(NCCCN(C)C)c1C2 | 4350 | 3920 | 4600 | 2470 | 5170 |  |  |

| SMILES | IC50 [1] [nM] | IC50 [2] [nM] | IC50 [3] [nM] | IC50 [4] [nM] | IC50 [5] [nM] | inhibition in vivo at 6 mg/kg [6] [%] | Activity [7] |
| --- | --- | --- | --- | --- | --- | --- | --- |
| CC[n+]1c(-c2ccccc2)c2cc(N)ccc2c2ccc(N)cc21 |  |  |  |  |  |  | Active |
| COc1cc2c(cc1OC)-c1nc3ccc(C)cc3c(NCCN(C)C)c1C2 | 3010 | 4990 | 2570 | 2390 | 2460 |  |  |
| Cc1ccc2nc3c(c(NCCCN4CCOCC4)c2c1)Cc1ccccc1-3 | 1670 | 890 | 1880 | 580 | 1420 |  |  |
| Cc1ccc2nc3c(c(NCCCN(C)C)c2c1)Cc1ccccc1-3 | 580 | 1160 | 1190 | 840 | 860 |  |  |
| COc1cc2c(cc1OC)-c1nc3ccc(Cl)cc3c(NCCCN3CCOCC3)c1C2 | 3800 | 2400 | 7600 | 2230 | 4130 |  |  |
| Fc1ccc2nc3c(c(NCCCN4CCOCC4)c2c1)Cc1ccccc1-3 | 3050 | 6660 | 4460 | 1900 | 2790 |  |  |
| COc1cc2c(cc1OC)-c1nc3ccc(Br)cc3c(NCCCN3CCOCC3)c1C2 | 5020 | 4250 | 3970 | 2640 | 3380 |  |  |
| CN(C)CCNc1c2c(nc3ccc(Br)cc13)-c1ccccc1C2 | 6430 | 2800 | 4180 | 2210 | 2980 |  |  |
| COc1cc2c(cc1OC)-c1nc3ccc(F)cc3c(NCCN(C)C)c1C2 | 4380 | 5730 | 1770 | 2200 | 2350 |  |  |
| CN(C)CCCNc1c2c(nc3ccc(Br)cc13)-c1ccccc1C2 | 1640 | 2020 | 3120 | 1360 | 1800 |  |  |
| COc1cc2c(cc1OC)-c1nc3ccc(C)cc3c(NCCCN3CCOCC3)c1C2 | 7720 | 5640 | 7460 | 4620 | 3500 |  |  |
| Cc1ccc2nc3c(c(NCCN(C)C)c2c1)Cc1ccccc1-3 | 1150 | 1030 | 1710 | 310 | 920 |  |  |
| CN(C)CCNc1c2c(nc3ccc(Cl)cc13)-c1ccccc1C2 | 3600 | 4960 | 6710 | 1740 | 3490 |  |  |
| CN(C)CCCNc1c2c(nc3ccc(Cl)cc13)-c1ccccc1C2 | 2300 | 2310 | 2140 | 910 | 1110 |  |  |
| COc1cc2c(cc1OC)-c1nc3ccccc3c(NCCCN3CCOCC3)c1C2 | 4970 | 5000 | 3940 | 2770 | 2520 |  |  |
